The results in this text go back to PubChem BioAssay (NCI).

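48-hour exposure; five concentrations; linearly interpolated endpoints. GI50: concentration for 50% inhibition of growth. TGI denotes the concentration required for complete inhibition of growth.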

Test systems include HL-60(TB) leukemia; UACC-62 melanoma; MOLT-4 leukemia; OVCAR-8 ovarian; SR leukemia; U251 CNS; TK-10 renal; KM12 colon; UACC-257 melanoma; A549 NSCLC.
Holding throughout (experiment): DTP human tumour cell line panel, 48 h

What is called GI50 is the concentration that inhibits growth by half. As usually defined, the TGI is the concentration giving total growth inhibition. Read a high TGI as less potent growth arrest. As for `Nc1ncn([C@@H]2S[C@H](CO)[C@@H](O)[C@@H]2F)c(=O)n1`, the GI50 with HL-60(TB) leukemia was 0.571 µM; in the experiment with UACC-62 melanoma, 5.01 µM; in the experiment with MOLT-4 leukemia it was 0.172 µM; with OVCAR-8 ovarian it was 0.409 µM; with SR leukemia, 0.648 µM; in the experiment on U251 CNS, 13.9 µM. Moreover, the GI50 in the experiment on TK-10 renal was > 100 µM; in the experiment with KM12 colon, 21.4 µM; in the experiment on UACC-257 melanoma, > 71.4 µM; in the experiment with A549 NSCLC it was 0.512 µM. The TGI is > 31.5 µM in the experiment on HL-60(TB) leukemia; > 100 µM in the experiment with UACC-62 melanoma; > 100 µM in the experiment with MOLT-4 leukemia; > 100 µM in the experiment on OVCAR-8 ovarian; > 100 µM in the experiment on SR leukemia; > 100 µM in the experiment with U251 CNS. Moreover, the total growth inhibition concentration (TGI) with TK-10 renal, with KM12 colon, in the experiment with UACC-257 melanoma and with A549 NSCLC was > 100 µM each time.
On to `FC(F)(F)c1cccc(-c2nc3nc(Cl)c(Cl)nc3[nH]2)c1`, for which the concentration for total growth inhibition (TGI) in the experiment with HL-60(TB) leukemia was 4.7 µM; in the experiment on UACC-62 melanoma it was 24.5 µM; in the experiment on MOLT-4 leukemia, 10.4 µM; with OVCAR-8 ovarian it was > 100 µM; with SR leukemia, 12.2 µM; in the experiment on U251 CNS it was 13.6 µM. Further, the concentration for total growth inhibition (TGI) in the experiment on TK-10 renal is > 76.1 µM; in the experiment on KM12 colon it was 11 µM; in the experiment on UACC-257 melanoma, > 30.9 µM; in the experiment with A549 NSCLC, > 40.3 µM.
In the case of `CCc1c2c(nc3ccc(OCc4ccc(B(O)O)cc4)cc13)-c1cc3c(c(=O)n1C2)COC(=O)[C@]3(O)CC`, the concentration for 50% growth inhibition (GI50) in the experiment with HL-60(TB) leukemia was 0.0353 µM; in the experiment on UACC-62 melanoma, < 0.01 µM; in the experiment on MOLT-4 leukemia it was 0.0101 µM; with OVCAR-8 ovarian it was 0.0195 µM; in the experiment on SR leukemia it was < 0.01 µM; in the experiment with U251 CNS it was < 0.01 µM. For the same molecule, the GI50 is 0.226 µM in the experiment on TK-10 renal, 0.15 µM with KM12 colon, 0.0943 µM in the experiment with UACC-257 melanoma and 0.0681 µM with A549 NSCLC. For the same molecule, the TGI is > 100 µM in the experiment with HL-60(TB) leukemia; 0.155 µM in the experiment with UACC-62 melanoma; > 100 µM with MOLT-4 leukemia; > 32.1 µM in the experiment on OVCAR-8 ovarian; > 100 µM in the experiment on SR leukemia; > 51.9 µM with KM12 colon. For the same molecule, the TGI in the experiment with UACC-257 melanoma is 2.06 µM; in the experiment with A549 NSCLC, > 32.3 µM.
For the molecule `CN(C)c1cc2ccccc2oc1=O`, the concentration for total growth inhibition (TGI) in the experiment with HL-60(TB) leukemia, in the experiment with UACC-62 melanoma, with MOLT-4 leukemia, in the experiment with OVCAR-8 ovarian, in the experiment on SR leukemia and in the experiment on U251 CNS was > 100 µM each time. Further, the TGI in the experiment with TK-10 renal, in the experiment with KM12 colon, in the experiment with UACC-257 melanoma and in the experiment on A549 NSCLC was > 100 µM throughout.
With `c1ccc(NN(Cc2cnccn2)c2ccccc2)cc1`, the TGI in the experiment on HL-60(TB) leukemia, in the experiment on UACC-62 melanoma, with MOLT-4 leukemia, with OVCAR-8 ovarian, with SR leukemia and with U251 CNS was > 100 µM in each case. Moreover, the total growth inhibition concentration (TGI) with TK-10 renal, with KM12 colon, with UACC-257 melanoma and in the experiment with A549 NSCLC was > 100 µM each time.
As for `Nc1nc2ccc(-c3nc4ccc5[nH]ncc5c4c4c3CCC4)cc2s1`, the GI50 in the experiment with HL-60(TB) leukemia was 0.168 µM; with UACC-62 melanoma it was 0.149 µM; in the experiment on MOLT-4 leukemia it was 0.294 µM; in the experiment on OVCAR-8 ovarian it was 0.978 µM; with SR leukemia, 0.155 µM; in the experiment on U251 CNS, 0.241 µM. Moreover, the GI50 was 1.11 µM in the experiment on TK-10 renal, 0.205 µM with KM12 colon, 0.731 µM in the experiment with UACC-257 melanoma and 0.44 µM in the experiment with A549 NSCLC. Further, the TGI in the experiment on HL-60(TB) leukemia came to 7.93 µM; in the experiment with UACC-62 melanoma, 0.63 µM; in the experiment on MOLT-4 leukemia it was 10.7 µM; in the experiment on OVCAR-8 ovarian, 20.7 µM; in the experiment on SR leukemia it was 22.4 µM; in the experiment on U251 CNS it was 12.7 µM. For the same molecule, the total growth inhibition concentration (TGI) is 9.73 µM with TK-10 renal, 9.01 µM in the experiment on KM12 colon, 5.58 µM with UACC-257 melanoma and 23.9 µM in the experiment on A549 NSCLC.
Consider `O=S(=O)(/N=c1\scc(-c2ccccc2)n1-c1ccccc1)c1ccc(N2N=C3c4ccccc4CC3C2c2ccc(Cl)cc2)cc1` (stereo not drawn), for which the GI50 was 29.6 µM in the experiment with HL-60(TB) leukemia; 32.7 µM in the experiment on UACC-62 melanoma; 18.5 µM in the experiment on MOLT-4 leukemia; 36.1 µM in the experiment on OVCAR-8 ovarian; 17.3 µM in the experiment with SR leukemia; 26.1 µM with U251 CNS. Moreover, the GI50 with TK-10 renal is 29.6 µM; with KM12 colon, 19.9 µM; with UACC-257 melanoma, 83.5 µM; with A549 NSCLC, 31.4 µM. Further, the TGI was 69 µM with HL-60(TB) leukemia; > 100 µM in the experiment on UACC-62 melanoma; > 100 µM in the experiment on MOLT-4 leukemia; > 100 µM with OVCAR-8 ovarian; 45.9 µM in the experiment on SR leukemia; 75.5 µM in the experiment with U251 CNS. In addition, the TGI was > 100 µM with TK-10 renal, 89 µM in the experiment with KM12 colon, > 100 µM with UACC-257 melanoma and > 100 µM in the experiment with A549 NSCLC.
As for `CC(=O)Nc1ccc(-c2cc(C(=O)O)c3cc4ccccc4cc3n2)cc1`, the concentration for total growth inhibition (TGI) with HL-60(TB) leukemia, with UACC-62 melanoma, with MOLT-4 leukemia, in the experiment on OVCAR-8 ovarian, in the experiment with SR leukemia and with U251 CNS was > 100 µM each time. Further, the total growth inhibition concentration (TGI) with TK-10 renal, with KM12 colon, in the experiment on UACC-257 melanoma and with A549 NSCLC was > 100 µM throughout.
As to `CC1=C([Se]CC(OC(=O)CC[Se]c2ccccc2)C(=O)NC(C)(C)C)C(=O)c2ccccc2C1=O` (stereo not drawn), the GI50 in the experiment on HL-60(TB) leukemia is 1.07 µM; with UACC-62 melanoma, 1.48 µM; in the experiment with MOLT-4 leukemia, 0.545 µM; in the experiment with OVCAR-8 ovarian, 1.77 µM; in the experiment on SR leukemia, 0.938 µM; in the experiment with U251 CNS it was 1.14 µM. For the same molecule, the GI50 with TK-10 renal is 1.99 µM; in the experiment with KM12 colon it was 1.59 µM; in the experiment on UACC-257 melanoma, 1.57 µM; with A549 NSCLC, 1.63 µM. Further, the TGI with HL-60(TB) leukemia came to 2.92 µM; with UACC-62 melanoma it was 2.83 µM; in the experiment on MOLT-4 leukemia it was 3.44 µM; in the experiment on OVCAR-8 ovarian it was 3.27 µM; in the experiment with SR leukemia it was 3.37 µM; in the experiment with U251 CNS, 3.77 µM. Also, the TGI turned out to be 3.62 µM in the experiment with TK-10 renal, 3.2 µM with KM12 colon, 2.95 µM in the experiment on UACC-257 melanoma and 3.61 µM in the experiment with A549 NSCLC.
